From ChEMBL document CHEMBL1201862, “PubChem BioAssay data set” (2004) come the findings set out here.

Calls of active or inactive are those of the source. Cut-off read from the data, not from the text of the source, for most assays here: actives have a measured EC50 and inactives only a lower limit. Bounds are passed on as bounds.

System in one experiment: not listed separately
Kind of experiment: NIH-3T3 fibroblast cytotoxicity, dose response, cytotoxicity control, cell-based, fluorescence, Alamar Blue, secondary assay (AID 2327).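 Note: NIH-3T3 mouse fibroblasts cultured with fluconazole at 8 µg/mL.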 It counts as functional.
Conditions: not given
A general note: Resazurin is reduced to fluorescent resorufin, in cell work by metabolically active cells.
One may read the EC50 as the midpoint of the concentration-response curve. As for `CCOC(=O)C1CCCN(C(=O)c2ccc3oc(CCc4ccccc4)nc3c2)C1` (stereo not given), the EC50 was > 150 µM (inactive).

System in another experiment: not listed separately
Kind of experiment: Luminescence Cell-Based Dose Confirmation HTS to Identify Activators of 5'UTR Stem-Loop Driven Alpha-Synuclein mRNA Translation in H4 Neuroglioblastoma Cells. [Related pubchem assays: 1829 (Project Summary), 1814 (Primary HTS)].
Conditions: not given
In kind it is functional.
Take `Cc1ccc(C2CCN(C(S)=NC(C)(C)C)C2)cc1` (stereo not given): the concentration for a half-maximal effect (EC50) was 14.9 µM (active).
As to `Cc1nnsc1[S+]([O-])c1ccc(Br)cc1` (stereo not given), the concentration for a half-maximal effect (EC50) is 21.9 µM (active).
Regarding `Clc1ccc(Nc2nc3cccnc3s2)cc1`, the EC50 is 0.341 µM (active).
Same read-out and setting: to `O=C(Nc1ccccc1[N+](=O)[O-])c1ccc(S(=O)(=O)N2CCCC2)cc1` belongs 10.8 µM (active); to `C1=C(CCNc2[nH]cnc3ncnc2-3)CCCC1`, 52.3 µM (active).

System in a further experiment: not listed separately
Kind of experiment: Luminescence Cell-Based Dose Response HTS to Identify Activators of Luciferase Translation or Activity in H4 […] Cells. [Related pubchem assays: 1829 (Project Summary), 1814 (Primary HTS)]. In kind it is functional.
Conditions: not given
Take `Cc1ccc(C2CCN(C(S)=NC(C)(C)C)C2)cc1` (stereo not given): the EC50 was 18.1 µM (active).
In the case of `Cc1nnsc1[S+]([O-])c1ccc(Br)cc1` (stereo not given), the EC50 is 6.67 µM (active).
As for `Clc1ccc(Nc2nc3cccnc3s2)cc1`, the EC50 is 0.333 µM (active).
In the case of `O=C(Nc1ccccc1[N+](=O)[O-])c1ccc(S(=O)(=O)N2CCCC2)cc1`, the EC50 was 9.21 µM (active).
Turning to `C1=C(CCNc2[nH]cnc3ncnc2-3)CCCC1`, the half-maximal effective concentration (EC50) is 20 µM (active).

System in another experiment: not listed separately
Nature of the experiment: cells. In kind it is functional, cell-based.
Conditions: not given
In the case of `CCOC(=O)C1CCCN(C(=O)c2ccc3oc(CCc4ccccc4)nc3c2)C1` (stereo not given), the concentration giving a half-maximal response (EC50) is recorded as > 350 µM (not active).
As for `O=S(=O)(CCSc1nc2ccccc2s1)c1nc2ccccc2s1`, the EC50 is > 350 µM (not active).

The test system of a further experiment is H4. Nature of the experiment: Luminescence Cell-Based Dose Response HTS to Identify Activators of 5'UTR Stem-Loop Driven Prion Protein mRNA Translation in H4 Neuroglioblastoma Cells. [Related pubchem assays: 1829 (Project Summary), 1814 (Primary HTS)]. It counts as functional. The note with it: Homo sapiens.
In the case of `Cc1ccc(C2CCN(C(S)=NC(C)(C)C)C2)cc1` (stereo not given), the EC50 is 62.4 µM (active).
`Cc1nnsc1[S+]([O-])c1ccc(Br)cc1` (stereo not given): the EC50 is > 120 µM (not active).
On the same count and under the same terms, to `O=C(Nc1ccccc1[N+](=O)[O-])c1ccc(S(=O)(=O)N2CCCC2)cc1` belongs 14.6 µM (active); to `C1=C(CCNc2[nH]cnc3ncnc2-3)CCCC1`, 40 µM (active).

A further experiment addresses T1, Heat shock factor protein 1 (Mus musculus, UniProt P38532).
T1 sequence (P38532 whole entry): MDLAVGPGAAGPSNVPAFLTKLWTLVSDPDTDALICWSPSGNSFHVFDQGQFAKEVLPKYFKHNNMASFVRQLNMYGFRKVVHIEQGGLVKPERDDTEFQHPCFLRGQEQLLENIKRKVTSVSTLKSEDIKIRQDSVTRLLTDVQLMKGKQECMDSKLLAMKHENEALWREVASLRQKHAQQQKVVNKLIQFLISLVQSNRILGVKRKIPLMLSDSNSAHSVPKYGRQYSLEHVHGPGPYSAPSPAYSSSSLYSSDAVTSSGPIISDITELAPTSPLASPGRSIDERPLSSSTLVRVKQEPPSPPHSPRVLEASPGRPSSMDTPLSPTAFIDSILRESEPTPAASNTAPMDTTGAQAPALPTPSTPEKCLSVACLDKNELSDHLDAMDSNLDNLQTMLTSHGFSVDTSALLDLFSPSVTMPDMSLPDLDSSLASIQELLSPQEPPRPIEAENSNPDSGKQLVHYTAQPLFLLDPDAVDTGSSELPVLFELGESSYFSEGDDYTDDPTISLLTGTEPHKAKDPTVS
Kind of experiment: decrease of HSF1-responsive luciferase luminescence – cell-based, NIH3T3, dose retest, confirmation (AID 2382).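 Note: NIH3T3 fibroblasts with HSF1-driven luciferase reporter stressed by proteasome inhibitor MG132; luminescence from HSF1-driven luciferase expression after 8 hours of MG132 stress.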 It counts as functional.
Conditions: not given
`Cc1ccc(C2CCN(C(S)=NC(C)(C)C)C2)cc1` (stereo not given): the 50% effective concentration (EC50) is reported as > 195 µM (not active).

System in a further experiment: not listed separately
Kind of experiment: fluconazole-exposed Candida albicans growth modulators – fluorescence, retest, confirmation (AID 2467).
Conditions: not given
It counts as functional, cell-based.
With `CCOC(=O)C1CCCN(C(=O)c2ccc3oc(CCc4ccccc4)nc3c2)C1` (stereo not given), the EC50 is listed as > 38 µM (not active).

System in a further experiment: not listed separately
Kind of experiment: cells. In kind it is functional, cell-based.
Conditions: not given
The source holds these as a separate data set.
With `CCOC(=O)C1CCCN(C(=O)c2ccc3oc(CCc4ccccc4)nc3c2)C1` (stereo not given), the EC50 is listed as > 350 µM (not active).
Same read-out and setting: next, `O=S(=O)(CCSc1nc2ccccc2s1)c1nc2ccccc2s1`: > 350 µM (not active).

In another experiment the target is T2, Replicative DNA helicase DnaB (Mycobacterium tuberculosis, UniProt P9WMR3).
T2 sequence (P9WMR3 whole entry): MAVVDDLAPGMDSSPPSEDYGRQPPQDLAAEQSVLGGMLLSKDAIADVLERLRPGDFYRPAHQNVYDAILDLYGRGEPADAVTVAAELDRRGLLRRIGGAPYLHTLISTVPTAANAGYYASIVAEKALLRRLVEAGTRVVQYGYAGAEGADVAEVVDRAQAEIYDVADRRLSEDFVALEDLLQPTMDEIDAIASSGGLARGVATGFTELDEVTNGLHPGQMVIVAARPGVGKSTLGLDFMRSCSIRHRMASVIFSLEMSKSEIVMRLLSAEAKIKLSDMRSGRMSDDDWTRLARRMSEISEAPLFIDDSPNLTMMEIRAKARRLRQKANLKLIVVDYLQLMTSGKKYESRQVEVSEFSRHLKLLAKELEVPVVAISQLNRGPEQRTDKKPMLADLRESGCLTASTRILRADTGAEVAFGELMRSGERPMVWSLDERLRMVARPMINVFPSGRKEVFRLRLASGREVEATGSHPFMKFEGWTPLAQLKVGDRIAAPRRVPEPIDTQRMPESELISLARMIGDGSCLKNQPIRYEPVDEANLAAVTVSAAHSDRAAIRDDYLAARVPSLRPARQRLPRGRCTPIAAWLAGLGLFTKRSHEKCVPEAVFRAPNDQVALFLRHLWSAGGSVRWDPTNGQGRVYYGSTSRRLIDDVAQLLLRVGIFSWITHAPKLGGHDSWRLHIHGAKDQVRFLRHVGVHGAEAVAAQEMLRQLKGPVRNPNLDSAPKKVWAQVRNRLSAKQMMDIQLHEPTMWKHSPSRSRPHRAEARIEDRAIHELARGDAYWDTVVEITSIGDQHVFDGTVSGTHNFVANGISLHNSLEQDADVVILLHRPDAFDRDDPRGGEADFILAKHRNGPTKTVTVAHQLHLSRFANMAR
Kind of experiment: DnaB intein splicing inhibitors, dose response, biochemical, cell-free fluorescence (AID 449749). It counts as functional.
Conditions: not given
The AC50 is the concentration at which the activity in the assay is half-maximal. Take `O=S(=O)(CCSc1nc2ccccc2s1)c1nc2ccccc2s1`: the concentration at half-maximal activity (AC50) was 2.29 µM (active).

The next experiment has as its target T3, Protein RecA (Mycobacterium tuberculosis, UniProt P9WHJ3).
T3 sequence (P9WHJ3 whole entry): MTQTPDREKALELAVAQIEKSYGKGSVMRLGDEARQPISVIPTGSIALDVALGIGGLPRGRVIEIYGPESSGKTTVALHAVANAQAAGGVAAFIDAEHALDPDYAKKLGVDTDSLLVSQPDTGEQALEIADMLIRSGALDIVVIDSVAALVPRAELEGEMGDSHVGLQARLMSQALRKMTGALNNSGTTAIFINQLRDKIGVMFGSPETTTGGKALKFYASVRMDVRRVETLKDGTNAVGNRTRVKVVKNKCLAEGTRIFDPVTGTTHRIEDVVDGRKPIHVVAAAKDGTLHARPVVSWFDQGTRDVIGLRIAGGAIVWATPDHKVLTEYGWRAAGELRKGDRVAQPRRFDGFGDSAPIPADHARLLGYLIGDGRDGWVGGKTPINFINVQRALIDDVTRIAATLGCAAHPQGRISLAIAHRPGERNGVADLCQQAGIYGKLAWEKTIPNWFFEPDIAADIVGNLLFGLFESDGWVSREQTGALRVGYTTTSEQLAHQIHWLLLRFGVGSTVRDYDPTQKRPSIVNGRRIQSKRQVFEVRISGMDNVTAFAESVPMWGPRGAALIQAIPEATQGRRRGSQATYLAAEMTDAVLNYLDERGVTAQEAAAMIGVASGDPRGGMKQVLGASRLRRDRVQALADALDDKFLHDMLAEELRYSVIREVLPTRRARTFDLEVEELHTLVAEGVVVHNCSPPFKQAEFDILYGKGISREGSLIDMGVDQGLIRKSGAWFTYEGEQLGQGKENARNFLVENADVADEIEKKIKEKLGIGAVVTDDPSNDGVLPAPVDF
Nature of the experiment: Fluorescence Cell-Free Homogeneous Dose Retest to Identify Inhibitors of RecA-Intein Splicing Activity. [Related pubchem assays (depositor defined):AID2097, AID2223, AID489010, AID492950]. In kind it is functional.
Conditions: not given
For `O=S(=O)(CCSc1nc2ccccc2s1)c1nc2ccccc2s1`, the EC50 was 2.22 µM (active).

In another experiment the target is T4, Polyadenylate-binding protein 1 (Homo sapiens, UniProt P11940). Nature of the experiment: MLLE binding blockers, Cy5 peptide tracer – biochemical, fluorescence polarization, Cy5-PAM2 peptide, secondary, miRNA deadenylation inhibitor project, dose response (AID 602260). In kind it is functional. The note with it: read-out: IC50_Mean. A general note: In fluorescence polarisation assays a small probe gives low polarisation when free and higher when bound to something large.
T4 sequence (P11940 whole entry): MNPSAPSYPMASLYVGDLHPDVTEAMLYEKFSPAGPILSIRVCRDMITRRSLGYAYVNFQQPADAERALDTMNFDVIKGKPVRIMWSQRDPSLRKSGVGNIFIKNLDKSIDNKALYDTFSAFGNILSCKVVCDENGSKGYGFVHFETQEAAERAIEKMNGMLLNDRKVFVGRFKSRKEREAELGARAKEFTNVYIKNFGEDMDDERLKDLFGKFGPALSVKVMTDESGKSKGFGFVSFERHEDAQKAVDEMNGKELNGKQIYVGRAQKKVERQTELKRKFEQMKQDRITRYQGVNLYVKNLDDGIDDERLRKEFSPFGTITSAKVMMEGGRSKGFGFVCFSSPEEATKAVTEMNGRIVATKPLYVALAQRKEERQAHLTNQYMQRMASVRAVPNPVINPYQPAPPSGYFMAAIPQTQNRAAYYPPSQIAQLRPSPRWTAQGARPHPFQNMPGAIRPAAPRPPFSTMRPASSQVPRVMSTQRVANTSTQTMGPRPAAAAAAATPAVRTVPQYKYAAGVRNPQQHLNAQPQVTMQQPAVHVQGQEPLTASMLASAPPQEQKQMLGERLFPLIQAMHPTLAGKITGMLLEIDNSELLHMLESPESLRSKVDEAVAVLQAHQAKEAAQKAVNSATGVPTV
Consider `CCCCNC(=O)CN1C(=O)c2cccc(N)c2C1=O`, for which the IC50 was > 66 µM (inactive).
Same read-out and setting: to `Cc1ccc2c(c1)sc(C)[n+]2CCCS(=O)(=O)[O-]` belongs > 66 µM (inactive).
On the same count and under the same terms, next, `Cc1ccc(CN(CC(=O)NC2CCCC2)C(=O)CSc2nnc(COc3ccccc3)o2)cc1`: > 66 µM (inactive); `CC(CC(=O)Nc1nnc(C(C)(C)C)s1)c1ccccc1` (stereo not given): > 66 µM (inactive); `CC12CC3(C)CC(C)(C1)CC(C(=O)NC(=S)NC(C)(C)C)(C2)C3`: > 66 µM (inactive).
The same measure, in the same setting: to `CC(=O)c1ccc(NC(S)=NCCc2ccc(S(N)(=O)=O)cc2)cc1` belongs > 66 µM (inactive).

Another experiment concerns the target T4, Polyadenylate-binding protein 1. Nature of the experiment: MLLE domain peptide-binding blockers, IC50 – biochemical, fluorescence polarization, FITC-PAM2 peptide, dose response (AID 602259). Particulars: read-out: IC50_Mean. It counts as functional.
Take `CCCCNC(=O)CN1C(=O)c2cccc(N)c2C1=O`: the IC50 is 31.6 µM (inactive).
The same measure, in the same setting: next, `Cc1ccc2c(c1)sc(C)[n+]2CCCS(=O)(=O)[O-]`: > 66 µM (inactive); `Cc1ccc(CN(CC(=O)NC2CCCC2)C(=O)CSc2nnc(COc3ccccc3)o2)cc1`: > 66 µM (inactive).
Still for that read-out and setting: to `CC(CC(=O)Nc1nnc(C(C)(C)C)s1)c1ccccc1` (stereo not given) belongs > 66 µM (inactive); to `CC12CC3(C)CC(C)(C1)CC(C(=O)NC(=S)NC(C)(C)C)(C2)C3`, > 66 µM (inactive).
As for `CC(=O)c1ccc(NC(S)=NCCc2ccc(S(N)(=O)=O)cc2)cc1`, the IC50 is > 66 µM (inactive).
